Test results as given in US20260262643A1, “HERBICIDAL BENZOXAZINES” (FMC CORPORATION, priority 2022, published 2026).

Assays:
[1] = test system: barnyardgrass; experiment: Test C preemergence; format: in vivo, Echinochloa crusgalli; details: Preemergence, 1000 g ai/ha; visual rating after 10 days, 0 to 100 scale (0 no effect, 100 complete control)
In short: (§1)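 Visual injury ratings on a 0–100 scale (100 = complete control) were made against untreated controls 10 days after treatment in the greenhouse. Compounds, formulated with surfactant in non-phytotoxic solvent, were sprayed on soil preemergence or onto one- to two-leaf plants 2–10 cm tall postemergence.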

[2] = test system: foxtail, giant; experiment: Test C preemergence; format: in vivo, Setaria faberi; details: 0 to 100 scale (0 no effect, 100 complete control); for Plant response rating, Foxtail, Giant: Preemergence, 1000 g ai/ha, visual rating after 10 days; for Foxtail, Giant plant response rating: preemergence
In short: as §1

[3] = test system: kochia; experiment: Test C preemergence; format: in vivo, Bassia scoparia; details: 0 to 100 scale (0 no effect, 100 complete control); for Plant response rating, Kochia: Preemergence, 1000 g ai/ha, visual rating after 10 days; for Kochia plant response rating: preemergence
In short: as §1

[4] = test system: Pigweed, Redroot; experiment: Test C preemergence; format: in vivo, Amaranthus retroflexus; details: 1000 g ai/ha, visual rating after 10 days, 0 to 100 scale (0 no effect, 100 complete control)
Excerpt: (§2) Seeds of plant species selected from barnyardgrass (Echinochloa crusgalli), blackgrass (Alopecurus myosuroides), corn (Zea mays), foxtail, giant (giant foxtail, Setaria faberi), green foxtail (Setaria viridis), goosegrass (Eleusine indica), kochia (Bassia scoparia), oat, wild (wild oat, Avena fatua), pigweed, palmer (palmer amaranth, palmer pigweed, Amaranthus palmeri), Pigweed, Redroot (redroot pigweed, Amaranthus retroflexus), ragweed (common ragweed, Ambrosia artemisiifolia), ryegrass, Italian ([…] ryegrass, Lolium multiflorum), soybean (Glycine max), and wheat (Triticum aestivum) were planted into a blend of loam soil and sand and treated preemergence with a directed soil spray using test chemicals formulated in a non-phytotoxic solvent mixture which included a surfactant. At the same time, plants selected from these crops and weed species and also galium (catchweed bedstraw, Galium aparine) and horseweed (Erigeron canadensis) were planted in pots containing the same blend of loam soil and sand and treated with postemergence applications of test chemicals formulated in the same manner. Plants ranged in height from 2 to 10 cm and were in the one- to two-leaf stage for the postemergence treatment. Treated plants and untreated controls were maintained in a greenhouse for 10 days, after which time all treated plants were compared to untreated controls and visually evaluated for injury. Plant response ratings, summarized in Table C, are based on a 0 to 100 scale where 0 is no effect and 100 is complete control. A dash (-) response means no test result.

[5] = test system: ragweed; experiment: Test C preemergence; format: in vivo, Ambrosia artemisiifolia; details: 0 to 100 scale (0 no effect, 100 complete control); for Plant response rating, Ragweed: Preemergence, 1000 g ai/ha, visual rating after 10 days; for Ragweed plant response rating: preemergence
In short: as §1

[6] = test system: ryegrass, Italian; experiment: Test C preemergence; format: in vivo, Lolium multiflorum; details: 0 to 100 scale (0 no effect, 100 complete control); for Plant response rating, Ryegrass, Italian: Preemergence, 1000 g ai/ha, visual rating after 10 days; for Ryegrass, Italian plant response rating: preemergence
In short: as §1

[7] = test system: barnyardgrass; experiment: Test C postemergence; format: in vivo, Echinochloa crusgalli; details: Postemergence, 1000 g ai/ha
In short: as §1

[8] = test system: blackgrass; experiment: Test C postemergence; format: in vivo, Alopecurus myosuroides
In short: as §1

[9] = test system: corn; experiment: Test C postemergence; format: in vivo, Zea mays
In short: as §1

[10] = test system: foxtail, giant; experiment: Test C postemergence; format: in vivo, Setaria faberi
In short: as §1

[11] = test system: kochia; experiment: Test C postemergence; format: in vivo, Bassia scoparia
In short: as §1

[12] = test system: Pigweed, Redroot; experiment: Test C postemergence; format: in vivo, Amaranthus retroflexus; details: 1000 g ai/ha
Excerpt: as §2

[13] = test system: ragweed; experiment: Test C postemergence; format: in vivo, Ambrosia artemisiifolia
In short: as §1

[14] = test system: ryegrass, Italian; experiment: Test C postemergence; format: in vivo, Lolium multiflorum
In short: as §1

[15] = test system: wheat; experiment: Test C postemergence; format: in vivo, Triticum aestivum
In short: as §1

[16] = test system: galium; experiment: Test C postemergence; format: in vivo, Galium aparine
In short: as §1

[17] = test system: blackgrass; experiment: Test C preemergence; format: in vivo, Alopecurus myosuroides; details: 0 to 100 scale (0 no effect, 100 complete control)
In short: as §1

[18] = test system: corn; experiment: Test C preemergence; format: in vivo, Zea mays; details: preemergence, 0 to 100 scale (0 no effect, 100 complete control)
In short: as §1

[19] = test system: goosegrass; experiment: Test C preemergence; format: in vivo, Eleusine indica; details: preemergence, 0 to 100 scale (0 no effect, 100 complete control)
Excerpt: as §2

[20] = test system: oat, wild; experiment: Test C preemergence; format: in vivo, Avena fatua; details: preemergence, 0 to 100 scale (0 no effect, 100 complete control)
In short: as §1

[21] = test system: pigweed, palmer; experiment: Test C preemergence; format: in vivo, Amaranthus palmeri; details: preemergence, 0 to 100 scale (0 no effect, 100 complete control)
In short: as §1

[22] = test system: soybean; experiment: Test C preemergence; format: in vivo, Glycine max; details: preemergence, 0 to 100 scale (0 no effect, 100 complete control)
In short: as §1

[23] = test system: wheat; experiment: Test C preemergence; format: in vivo, Triticum aestivum; details: preemergence, 0 to 100 scale (0 no effect, 100 complete control)
In short: as §1

[24] = test system: goosegrass; experiment: Test C postemergence; format: in vivo, Eleusine indica; details: 10 days
Excerpt: as §2

[25] = test system: oat, wild; experiment: Test C postemergence; format: in vivo, Avena fatua; details: 125 g ai/ha, postemergence, 10 days; 0 to 100 scale, 0 no effect, 100 complete control
In short: as §1

[26] = test system: pigweed, palmer; experiment: Test C postemergence; format: in vivo, Amaranthus palmeri; details: 125 g ai/ha, postemergence, 10 days; 0 to 100 scale, 0 no effect, 100 complete control
In short: as §1

[27] = test system: soybean; experiment: Test C postemergence; format: in vivo, Glycine max; details: 125 g ai/ha, postemergence, 10 days; 0 to 100 scale, 0 no effect, 100 complete control
In short: as §1

[28] = test system: horseweed; experiment: Test C postemergence; format: in vivo, Erigeron canadensis; details: 10 days
In short: as §1

[29] = test system: barnyardgrass; experiment: Test D flooded paddy test; format: in vivo, Echinochloa crus-galli; details: 250 g ai/ha, applied to paddy water, visual rating after 13 to 14 days, scale 0 to 100 (0 no effect, 100 complete control)
In short: (§3)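 Post-flood water application at the 2-leaf stage; 3 cm flood depth kept constant; visual control rating 0–100 after 13–14 days greenhouse growth.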

[30] = test system: ducksalad; experiment: Test D flooded paddy test; format: in vivo, Heteranthera limosa; details: 250 g ai/ha, applied to paddy water, visual rating after 13 to 14 days, scale 0 to 100 (0 no effect, 100 complete control)
In short: as §3

[31] = test system: rice; experiment: Test D flooded paddy test; format: in vivo, Oryza sativa; details: 250 g ai/ha, applied to paddy water, visual rating after 13 to 14 days, scale 0 to 100 (0 no effect, 100 complete control)
In short: as §3

[32] = test system: sedge, umbrella; experiment: Test D flooded paddy test; format: in vivo, Cyperus difformis; details: 250 g ai/ha, applied to paddy water, visual rating after 13 to 14 days, scale 0 to 100 (0 no effect, 100 complete control)
In short: as §3

[33] = 10 days, visual 0 to 100 scale (0 no effect, 100 complete control)
[34] = Postemergence, 1000 g ai/ha, 10 days, visual 0 to 100 scale (0 no effect, 100 complete control)
[35] = 0 to 100 scale, 0 no effect, 100 complete control
[36] = Postemergence, 1000 g ai/ha, 0 to 100 scale, 0 no effect, 100 complete control
[37] = 125 g ai/ha, postemergence, 10 days, 0 to 100 scale, 0 no effect, 100 complete control
[38] = Postemergence, 500 g ai/ha, 10 days, visual 0 to 100 scale (0 no effect, 100 complete control)
[39] = 125 g ai/ha, postemergence, 0 to 100 scale, 0 no effect, 100 complete control
[40] = Postemergence, 500 g ai/ha, visual 0 to 100 scale (0 no effect, 100 complete control)

CCC1CN(C(=O)c2ccnc(-c3cccnc3)c2)c2cccc(Cl)c2O1 (racemic) [Compound 286]
Plant response rating, Barnyardgrass [1]: 0
Plant response rating, Foxtail, Giant [2]: 0
Plant response rating, Kochia [3]: 0
Plant response rating, Pigweed, Redroot [4]: 0
Plant response rating, Ragweed [5]: 0
Plant response rating, Ryegrass, Italian [6]: 0
Plant response rating, Barnyardgrass [7, 33]: 0
Plant response rating, Blackgrass [8, 34]: 0
Plant response rating, Corn [9, 34]: 0
Plant response rating, Foxtail, Giant [10, 34]: 0
Plant response rating, Kochia [11, 34]: 0
Plant response rating, Pigweed, Redroot [12, 33]: 0
Plant response rating, Ragweed [13, 34]: 0
Plant response rating, Ryegrass, Italian [14, 34]: 0
Plant response rating, Wheat [15, 34]: 0
Plant response rating, Galium [16, 34]: 0

C[C@H]1CN(C(=O)c2cccc(-c3cccnc3)c2)c2cccc(Cl)c2O1 [Compound 200]
Plant response rating, Barnyardgrass [1]: 0
Plant response rating, Foxtail, Giant [2]: 0
Plant response rating, Kochia [3]: 0
Plant response rating, Pigweed, Redroot [4]: 0
Plant response rating, Ragweed [5]: 0
Plant response rating, Ryegrass, Italian [6]: 0
Plant response rating, Barnyardgrass [7, 35]: 10
Plant response rating, Blackgrass [8, 36]: 0
Plant response rating, Corn [9, 36]: 20
Plant response rating, Foxtail, Giant [10, 36]: 0
Plant response rating, Kochia [11, 36]: 0
Plant response rating, Pigweed, Redroot [12, 35]: 20
Plant response rating, Ragweed [13, 36]: 0
Plant response rating, Ryegrass, Italian [14, 36]: 0
Plant response rating, Wheat [15, 36]: 0
Plant response rating, Galium [16, 36]: 30

O=C(c1cccc(-n2cncn2)c1)N1CC2(CC2)Oc2ccccc21 [Compound 201]
Plant response rating, Barnyardgrass [1]: 0
Plant response rating, Foxtail, Giant [2]: 10
Plant response rating, Kochia [3]: 0
Plant response rating, Ragweed [5]: 0
Plant response rating, Ryegrass, Italian [6]: 0
Plant response rating, Barnyardgrass [7, 35]: 10
pest or weed control at 1000 g/ha ([8]; Alopecurus myosuroides, post-emergence, 240 h, Postemergence, 1000 g ai/ha, 0 to 100 scale, 0 no effect, 100 complete control, read-out: Plant response rating, Blackgrass): 0%
Corn plant response rating (crop injury, 0 = no effect, 100 = complete kill) at 1000 g/ha ([9]; Zea mays, post-emergence, 240 h, Postemergence, 1000 g ai/ha, 0 to 100 scale, 0 no effect, 100 complete control): 0%
Plant response rating, Foxtail, Giant [10, 36]: 10
Plant response rating, Kochia [11, 36]: 10
Plant response rating, Pigweed, Redroot [12, 35]: 0
Plant response rating, Ragweed [13, 36]: 0
Plant response rating, Ryegrass, Italian [14, 36]: 0
Plant response rating, Wheat [15, 36]: 0
Plant response rating, Galium [16, 36]: 40

Cc1cccc2c1O[C@@H](C)CN2C(=O)c1cccc(-n2nccn2)c1 [Compound 282]
Plant response rating, Blackgrass ([17]; Preemergence, 500 g ai/ha, visual rating after 10 days): 0
Blackgrass plant response rating ([17]; Test C, preemergence, 125 g ai/ha): 0
Corn plant response rating ([18]; 500 g ai/ha): 0
Corn plant response rating ([18]; Test C, 125 g ai/ha): 0
Foxtail, Giant plant response rating ([2]; 500 g ai/ha): 0
Foxtail, Giant plant response rating ([2]; Test C, 125 g ai/ha): 0
Goosegrass plant response rating ([19]; 500 g ai/ha): 0
Goosegrass plant response rating ([19]; Test C, 125 g ai/ha): 0
Kochia plant response rating ([3]; 500 g ai/ha): 0
Kochia plant response rating ([3]; Test C, 125 g ai/ha): 0
Oat, Wild plant response rating ([20]; 500 g ai/ha): 0
Oat, Wild plant response rating ([20]; Test C, 125 g ai/ha): 0
Pigweed, Palmer plant response rating ([21]; 500 g ai/ha): 0
Pigweed, Palmer plant response rating ([21]; Test C, 125 g ai/ha): 0
Ragweed plant response rating ([5]; 500 g ai/ha): 0
Ragweed plant response rating ([5]; Test C, 125 g ai/ha): 0
Ryegrass, Italian plant response rating ([6]; 500 g ai/ha): 0
Ryegrass, Italian plant response rating ([6]; Test C, 125 g ai/ha): 0
Soybean plant response rating ([22]; 500 g ai/ha): 0
Soybean plant response rating ([22]; Test C, 125 g ai/ha): 0
Wheat plant response rating ([23]; 500 g ai/ha): 0
Wheat plant response rating ([23]; Test C, 125 g ai/ha): 0
Plant response rating, Blackgrass [8, 37]: 0
Plant response rating, Blackgrass [8, 38]: 0
Plant response rating, Corn [9, 37]: 0
Plant response rating, Corn [9, 38]: 0
Plant response rating, Foxtail, Giant [10, 37]: 0
Plant response rating, Foxtail, Giant [10, 38]: 0
Plant response rating, Goosegrass [24, 39]: 0
Plant response rating, Goosegrass [24, 40]: 0
Plant response rating, Kochia [11, 37]: 0
Plant response rating, Oat, Wild [25]: 0
Plant response rating, Pigweed, Palmer [26]: 0
Plant response rating, Ragweed [13, 37]: 0
Plant response rating, Ryegrass, Italian [14, 37]: 0
Plant response rating, Soybean [27]: 0
Plant response rating, Wheat [15, 37]: 0
Plant response rating, Galium [16, 37]: 0
Plant response rating, Galium [16, 38]: 0
Plant response rating, Horseweed [28, 39]: 0
Plant response rating, Horseweed [28, 40]: 0
Plant response rating, Barnyardgrass (Flood) [29]: 0
Plant response rating, Ducksalad (Flood) [30]: 0
Plant response rating, Rice (Flood) [31]: 0
Plant response rating, Sedge, Umbrella (Flood) [32]: 0
